In the supplement of paper PMC10307832:

Columns and labels:
Experiment in all cases: relative viability (nuclei count vs DMSO), 5 days (fraction); higher = more cells survive
[1] = compound: C1COCCN1CC2=CC(=O)C(=CO2)OCCCCCSC3=C4C=CC(=CC4=NC=C3)C(F)(F)F [EHT 1864] + O=C(c1cc(Cc2n[nH]c(=O)c3ccccc23)ccc1F)N1CCN(C(=O)C2CC2)CC1 [Olaparib] (partner 8 µM)
Method in brief: (§1)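 Relative viability equals treated-well nuclei counts divided by vehicle-well nuclei counts. Counts came from 4× images of lung cancer cell lines grown in 1536-well plates for 5 days after pin-tool dosing on the day after seeding. Dosing used one drug alone or a fixed anchor-drug dose plus five library-drug doses (not always all listed) in √10 steps, and values are medians of duplicate plates.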

[2] = compound: C1COCCN1CC2=CC(=O)C(=CO2)OCCCCCSC3=C4C=CC(=CC4=NC=C3)C(F)(F)F [EHT 1864] + CC(=O)Nc1cccc(-n2c(=O)n(C3CC3)c(=O)c3c(Nc4ccc(I)cc4F)n(C)c(=O)c(C)c32)c1 [Trametinib] (partner 0.02 µM)
Method in brief: as §1

[3] = compound: C1COCCN1CC2=CC(=O)C(=CO2)OCCCCCSC3=C4C=CC(=CC4=NC=C3)C(F)(F)F [EHT 1864] + N=C(N)NC(=N)NCCc1ccccc1 [Phenformin] (partner 250 µM)
Method in brief: as §1

[4] = compound: C1COCCN1CC2=CC(=O)C(=CO2)OCCCCCSC3=C4C=CC(=CC4=NC=C3)C(F)(F)F [EHT 1864]
Method in brief: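 Five library-drug doses spaced by √10 were pinned onto vehicle-anchored 1536-well plates of lung cancer cell lines that had been kept overnight at 37 °C. Cells went 5 days without medium change, then were fixed, permeabilised and Hoechst-stained together, imaged at 4× and counted by MetaXpress. Viability is the ratio of treated-well to vehicle-well nuclei, taken as a median over plates. Plates required control CV below 25% and at least one doubling.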

| Cell Line | relative viability ([1]; first compound 0.04 µM) | relative viability ([1]; first compound 0.1265 µM) | relative viability ([1]; first compound 0.4 µM) | relative viability ([1]; first compound 1.265 µM) | relative viability ([1]; first compound 4 µM) | relative viability ([2]; first compound 0.04 µM) | relative viability ([2]; first compound 0.1265 µM) | relative viability ([2]; first compound 0.4 µM) | relative viability ([2]; first compound 1.265 µM) | relative viability ([2]; first compound 4 µM) | relative viability ([3]; first compound 0.04 µM) | relative viability ([3]; first compound 0.1265 µM) | relative viability ([3]; first compound 0.4 µM) | relative viability ([3]; first compound 1.265 µM) | relative viability ([3]; first compound 4 µM) | relative viability ([4]; 0.04 µM) | relative viability ([4]; 0.1265 µM) | relative viability ([4]; 0.4 µM) | relative viability ([4]; 1.265 µM) | relative viability ([4]; 4 µM) |
| --- | --- | --- | --- | --- | --- | --- | --- | --- | --- | --- | --- | --- | --- | --- | --- | --- | --- | --- | --- | --- |
| COR-L23 | 0.35 | 0.359 | 0.314 | 0.392 | 0.213 | 0.524 | 0.453 | 0.598 | 0.631 | 0.553 | 0.53 | 0.368 | 0.484 | 0.5 | 0.491 | 0.964 | 0.885 | 0.956 | 0.971 | 0.824 |
| NCI-H1755 | 0.912 | 0.817 | 0.822 | 0.817 | 0.829 | 0.732 | 0.782 | 0.768 | 0.701 | 0.726 | 0.607 | 0.564 | 0.594 | 0.612 | 0.629 | 0.989 | 0.955 | 0.927 | 0.979 | 0.938 |
| NCI-H1437 | 0.621 | 0.587 | 0.622 | 0.523 | 0.523 | 0.531 | 0.411 | 0.56 | 0.485 | 0.45 | 0.34 | 0.262 | 0.298 | 0.311 | 0.335 | 1.05 | 0.94 | 0.936 | 0.839 | 0.762 |
| NCI-H2085 | 0.783 | 0.762 | 0.754 | 0.732 | 0.713 | 0.417 | 0.533 | 0.514 | 0.604 | 0.543 | 0.731 |  | 0.832 | 0.808 | 0.732 | 0.988 | 0.897 | 0.987 | 1.01 | 0.903 |
| H3255 | 0.56 | 0.537 | 0.573 | 0.55 | 0.569 | 0.561 | 0.527 |  | 0.65 | 0.67 | 0.383 | 0.394 | 0.424 | 0.36 | 0.399 | 0.903 | 0.82 | 0.963 | 0.946 | 1.01 |
| NCI-H650 | 0.425 | 0.386 | 0.383 | 0.39 | 0.413 | 0.995 | 0.92 | 0.898 | 1.23 | 1.11 | 0.403 | 0.455 | 0.48 | 0.447 | 0.459 | 0.894 | 0.846 | 0.968 | 1.01 | 1.03 |
| LCLC-103H | 0.742 | 0.694 | 0.739 | 0.718 | 0.734 | 0.701 | 0.612 | 0.655 | 0.588 | 0.55 | 0.356 | 0.271 | 0.357 | 0.33 | 0.391 | 0.987 | 0.903 | 1.01 | 1.12 | 1.02 |
| LOU-NH91 | 0.917 | 0.858 | 0.911 | 0.949 | 0.885 | 0.757 | 0.747 | 0.802 | 0.761 | 0.74 | 0.783 | 0.635 | 0.859 | 0.738 | 0.66 | 0.973 | 0.909 | 1.05 | 1.04 | 0.892 |
| NCI-H1650 | 0.722 | 0.63 | 0.776 | 0.845 | 0.682 | 0.521 | 0.568 | 0.515 | 0.515 | 0.568 |  |  | 0.478 | 0.435 | 0.39 | 0.892 | 0.676 | 0.907 | 0.826 | 0.754 |
| NCI-H3122 | 0.556 | 0.58 | 0.627 | 0.596 | 0.612 | 0.219 | 0.288 | 0.248 | 0.202 | 0.219 | 0.415 | 0.373 | 0.362 | 0.345 | 0.304 | 0.99 | 0.98 | 0.994 | 0.999 | 0.945 |
| PC-3 [JPC-3] | 1.15 | 1.04 | 1.14 | 1.03 | 1.05 | 0.641 | 0.649 | 0.763 | 0.727 | 0.695 | 0.507 | 0.439 | 0.451 | 0.478 | 0.51 | 1.1 | 0.908 | 1.02 | 1.05 | 0.953 |
| NCI-H1651 | 0.165 | 0.184 | 0.177 | 0.174 | 0.191 | 0.832 | 0.827 | 0.822 | 0.817 | 0.808 | 0.376 | 0.358 | 0.333 | 0.345 | 0.334 | 0.944 | 0.958 | 0.918 | 0.949 | 0.98 |
| NCI-H2087 | 0.545 |  | 0.468 | 0.545 | 0.534 | 0.188 |  | 0.211 | 0.167 | 0.215 | 0.453 |  | 0.462 | 0.434 | 0.518 | 1.12 |  | 0.956 | 0.832 | 0.942 |
